One assay concerns HCT116 MTAP−/−. The assay is described as follows: Inhibition of cellular proliferation, 4 days, Cell Titer Glo, HCT116 MTAP−/−. In kind it is cell-based. The conditions noted are these: Homo sapiens, HCT-116, 96 h, IC50 bin with Max Inh., read-out: 4 Day Relative Growth Inhibition (MTAP −/−). A digest of the protocol:
(§1)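 IC50 derived from blank-corrected ATP luminescence (Cell Titer Glo) expressed relative to within-plate 0.2% DMSO wells. Compound, as a 10-point 3-fold series, was added 24 h after seeding the MTAP+/+ or MTAP−/− HCT116 cells and incubated 4 days at 37° C./5% CO2.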

For a further assay, the system named is HCT116 MTAP+/+. Description: Inhibition of cellular proliferation, 4 days, Cell Titer Glo, HCT116 MTAP+/+. The class given is cell-based. The following applies: Homo sapiens, HCT-116, 96 h, IC50 bin with Max Inh., read-out: 4 Day Relative Growth Inhibition (MTAP +/+). An outline of the steps: as §1
A general note: Cellular ATP, detected with luciferase, serves as a proxy for viable cell number.

The test system of assay [1] is SAM in HCT116 human colon carcinoma cell line with MTAP gene deleted (MTAP −/−). The assay is described as follows: Cellular assay of target engagement (SAM), LC-MS/MS, 72 hrs. In kind it is cell-based. The conditions noted are these: HCT-116, IC50 bin with Max Inh., read-out: Cell 72 h SAM Inhibition (MTAP −/−). A digest of the protocol: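 SAM levels were quantified by LC-MS/MS (m/z 399.2→250.1, d3-SAM internal standard) from cold methanol/acetic acid extracts, yielding IC50. Compound was applied as a 10-point 3-fold series for 72 hrs to MTAP −/− HCT116 cells seeded 24 hours before.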

For another assay, the target named is T1, MAT2A homodimer (Homo sapiens, UniProt P31153).
T1 construct: inferred from Ni sepharose purification with imidazole elution; made in house; host or cells: Sf9 insect cells, baculovirus (Bac to Bac, pFASTBAC1)
Description: MAT2A inhibition (biochemical, liberated phosphate, PiColorLock Gold). The conditions noted are these: recombinant MAT2A homodimer; IC50 bin with Max Inh.; read-out: Enzyme Inhibition Bin. A digest of the protocol: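 Enzyme at 4 μg/mL and compound equilibrated 60 min at 25 °C, then 60 min reaction after adding substrate mix (500 μM ATP, 400 μM methionine). Released phosphate quantified by colorimetric kit against a phosphate standard curve to give IC50. Secondary format used 1 μg/mL enzyme with 5 h incubation.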

The structures appear in SMILES notation. pIC50: −log10 of the molar value.

T1 sequence (P31153 whole entry): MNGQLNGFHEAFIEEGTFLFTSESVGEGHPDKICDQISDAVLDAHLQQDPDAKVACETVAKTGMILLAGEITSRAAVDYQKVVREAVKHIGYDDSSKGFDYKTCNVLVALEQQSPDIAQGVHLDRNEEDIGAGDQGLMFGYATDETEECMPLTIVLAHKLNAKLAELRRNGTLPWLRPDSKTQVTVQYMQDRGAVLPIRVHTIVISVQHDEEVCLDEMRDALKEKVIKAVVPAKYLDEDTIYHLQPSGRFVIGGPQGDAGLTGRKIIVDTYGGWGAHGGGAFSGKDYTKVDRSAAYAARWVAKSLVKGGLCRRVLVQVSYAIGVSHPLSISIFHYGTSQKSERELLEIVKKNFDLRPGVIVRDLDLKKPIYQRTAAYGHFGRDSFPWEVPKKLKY

With `Nc1ccc(-n2nc3ccn(CC4CC4)c3c(-c3ccc(OC(F)F)cc3)c2=O)cc1` [Example 228, 2-(4-aminophenyl)-5-(cyclopropylmethyl)-4-(4-(difluoromethoxy)phenyl)-2,5-dihydro-3H-pyrrolo[3,2-c]pyridazin-3-one], the pIC50 with HCT116 MTAP−/− was under 6.00; in the assay on HCT116 MTAP+/+ it was under 6.00; in assay [1], 6.00 to 7.00; at MAT2A homodimer, over 7.00.
In the case of `Cn1cc2cc(-n3nc4c(c(-c5ccc(C6CC6)nc5)c3=O)N(CC3CC3)CC4(C)C)ccc2n1` [Example 260, 5-(cyclopropylmethyl)-4-(6-cyclopropylpyridin-3-yl)-7,7-dimethyl-2-(2-methyl-2H-indazol-5-yl)-2,5,6,7-tetrahydro-3H-pyrrolo[3,2-c]pyridazin-3-one], the pIC50 was under 6.00 in the assay on HCT116 MTAP−/−, under 6.00 with HCT116 MTAP+/+, under 6.00 in assay [1] and 5.00 to 6.00 on MAT2A homodimer.
As for `Cc1cn(CC2CC2)c2c(-c3ccc(C4CC4)nc3)c(=O)n(-c3ccc4nn(C)cc4c3)nc12` [Example 234, 5-(cyclopropylmethyl)-4-(6-cyclopropylpyridin-3-yl)-7-methyl-2-(2-methyl-2H-indazol-5-yl)-2,5-dihydro-3H-pyrrolo[3,2-c]pyridazin-3-one], the pIC50 (with HCT116 MTAP−/−; in the assay with HCT116 MTAP+/+; in assay [1]; at MAT2A homodimer) was over 7.00 throughout.
For the compound `CCCn1cc(C#N)c2nn(-c3ccc4nn(C)cc4c3)c(=O)c(-c3ccc(C)nc3)c21` [Example 145, 2-(2-methyl-2H-indazol-5-yl)-4-(6-methylpyridin-3-yl)-3-oxo-5-propyl-3,5-dihydro-2H-pyrrolo[3,2-c]pyridazine-7-carbonitrile], the pIC50 with HCT116 MTAP−/− was 6.00 to 7.00; in the assay on HCT116 MTAP+/+ it was 6.00 to 7.00; in assay [1] it was 6.00 to 7.00; at MAT2A homodimer, over 7.00.
With `Cn1cc2cc(-n3nc4c(C#C[Si](C)(C)C)cn(CC5CC5)c4c(-c4ccc(C5CC5)nc4)c3=O)ccc2n1` [Example 243, 5-(cyclopropylmethyl)-4-(6-cyclopropylpyridin-3-yl)-2-(2-methyl-2H-indazol-5-yl)-7-((trimethylsilyl)ethynyl)-2,5-dihydro-3H-pyrrolo[3,2-c]pyridazin-3-one], the pIC50 is over 7.00 in the assay on HCT116 MTAP−/−, under 6.00 in the assay with HCT116 MTAP+/+, over 7.00 in assay [1] and over 7.00 at MAT2A homodimer.
As for `Cn1cc2cc(-n3nc4ncn(CC5CC5)c4c(-c4ccc(C5CC5)nc4)c3=O)ccc2n1` [Example 190, 5-(cyclopropylmethyl)-4-(6-cyclopropylpyridin-3-yl)-2-(2-methyl-2H-indazol-5-yl)-2,5-dihydro-3H-imidazo[4,5-c]pyridazin-3-one], the pIC50 in the assay on HCT116 MTAP−/− was over 7.00; in the assay with HCT116 MTAP+/+, under 6.00; in assay [1], over 7.00; on MAT2A homodimer, over 7.00.
Take `CNC(=O)c1cn(CC2CC2)c2c(-c3ccc(OC(F)F)cc3)c(=O)n(-c3ccc4nn(C)cc4c3)nc12` [Example 169, 5-(cyclopropylmethyl)-4-(4-(difluoromethoxy)phenyl)-N-methyl-2-(2-methyl-2H-indazol-5-yl)-3-oxo-3,5-dihydro-2H-pyrrolo[3,2-c]pyridazine-7-carboxamide]: the pIC50 with HCT116 MTAP−/− was over 7.00; in the assay with HCT116 MTAP+/+, 6.00 to 7.00; in assay [1] it was over 7.00; on MAT2A homodimer it was over 7.00.
Turning to `CNC(=O)c1cn(CC2CC2)c2c(-c3ccc(Cl)cc3)c(=O)n(-c3ccc4nn(C)cc4c3)nc12` [Example 171, 4-(4-chlorophenyl)-5-(cyclopropylmethyl)-N-methyl-2-(2-methyl-2H-indazol-5-yl)-3-oxo-3,5-dihydro-2H-pyrrolo[3,2-c]pyridazine-7-carboxamide], the pIC50 (in the assay on HCT116 MTAP−/−; with HCT116 MTAP+/+; in assay [1]; at MAT2A homodimer) was over 7.00 in each case.
For `[2H]C([2H])([2H])Oc1ccc(-n2nc3ccn(CC4CC4)c3c(-c3ccc(C)nc3)c2=O)cc1` [Example 134, 5-(cyclopropylmethyl)-2-(4-(methoxy-d3)phenyl)-4-(6-methylpyridin-3-yl)-2,5-dihydro-3H-pyrrolo[3,2-c]pyridazin-3-one], the pIC50 in the assay with HCT116 MTAP−/− is 6.00 to 7.00; in the assay with HCT116 MTAP+/+, under 6.00; in assay [1] it was over 7.00; at MAT2A homodimer, over 7.00.
As for `Cn1cc2cc(-n3nc4c(c(-c5ccc(OC(F)F)cc5)c3=O)n(CC3CC3)c(=O)n4C)ccc2n1` [Example 196, 5-(cyclopropylmethyl)-4-[4-(difluoromethoxy)phenyl]-7-methyl-2-(2-methyl-2H-indazol-5-yl)-2H,3H,5H,6H,7H-imidazolidino[4,5-c]pyridazine-3,6-dione], the pIC50 with HCT116 MTAP−/− is over 7.00; with HCT116 MTAP+/+ it was 6.00 to 7.00; in assay [1], over 7.00; on MAT2A homodimer, over 7.00.
As to `CCc1ccc(-c2c(=O)n(-c3ccc4nn(C)cc4c3)nc3c(C#N)cn(CC4CC4)c23)cn1` [Example 136, 5-(cyclopropylmethyl)-4-(6-ethylpyridin-3-yl)-2-(2-methyl-2H-indazol-5-yl)-3-oxo-3,5-dihydro-2H-pyrrolo[3,2-c]pyridazine-7-carbonitrile], the pIC50 with HCT116 MTAP−/− was over 7.00; with HCT116 MTAP+/+, 6.00 to 7.00; in assay [1] it was over 7.00; on MAT2A homodimer it was over 7.00.
Take `Cn1cc2cc(-n3nc4c(C#N)cn(CC5CC5)c4c(-c4ccc(OC(F)F)cc4)c3=O)ccc2n1` [Example 102, 5-(cyclopropylmethyl)-4-(4-(difluoromethoxy)phenyl)-2-(2-methyl-2H-indazol-5-yl)-3-oxo-3,5-dihydro-2H-pyrrolo[3,2-c]pyridazine-7-carbonitrile]: the pIC50 in the assay on HCT116 MTAP−/− was over 7.00; in the assay on HCT116 MTAP+/+, under 6.00; in assay [1], over 7.00; at MAT2A homodimer it was over 7.00.
Take `Cn1cc2cc(-n3nc4c(c(-c5ccc(Cl)cc5)c3=O)n(CC3CC3)c(=O)n4C)ccc2n1` [Example 199, 4-(4-chlorophenyl)-5-(cyclopropylmethyl)-7-methyl-2-(2-methyl-2H-indazol-5-yl)-2,7-dihydro-3H-imidazo[4,5-c]pyridazine-3,6(5H)-dione]: the pIC50 is over 7.00 in the assay with HCT116 MTAP−/−, under 6.00 in the assay with HCT116 MTAP+/+, over 7.00 in assay [1] and over 7.00 on MAT2A homodimer.
Turning to `COc1ccc(-n2nc3ccn(CC4CC4)c3c(-c3ccc(OC(F)F)cc3)c2=O)cc1` [Example 229, 5-(cyclopropylmethyl)-4-(4-(difluoromethoxy)phenyl)-2-(4-methoxyphenyl)-2,5-dihydro-3H-pyrrolo[3,2-c]pyridazin-3-one], the pIC50 was over 7.00 in the assay on HCT116 MTAP−/−, 6.00 to 7.00 in the assay on HCT116 MTAP+/+, over 7.00 in assay [1] and over 7.00 at MAT2A homodimer.
With `[2H]C([2H])([2H])Oc1ccc(-n2nc3ccn(CC4CC4)c3c(-c3ccc(C4CC4)nc3)c2=O)cc1` [Example 122, 5-(cyclopropylmethyl)-4-(6-cyclopropylpyridin-3-yl)-2-(4-(methoxy-d3)phenyl)-2,5-dihydro-3H-pyrrolo[3,2-c]pyridazin-3-one], the pIC50 in the assay on HCT116 MTAP−/− is over 7.00; in the assay with HCT116 MTAP+/+, under 6.00; in assay [1], over 7.00; at MAT2A homodimer it was over 7.00.
For the compound `Cn1cc2cc(-n3nc4ccn(CC5CC5)c4c(-c4ccc(Cl)cc4)c3=O)ccc2n1` [Example 112, 4-(4-chlorophenyl)-5-(cyclopropylmethyl)-2-(2-methyl-2H-indazol-5-yl)-2,5-dihydro-3H-pyrrolo[3,2-c]pyridazin-3-one], the pIC50 with HCT116 MTAP−/− is over 7.00; in the assay with HCT116 MTAP+/+, under 6.00; in assay [1] it was over 7.00; on MAT2A homodimer, over 7.00.
In the case of `Cn1cc2cc(-n3nc4c(CO)cn(CC5CC5)c4c(-c4ccc(C5CC5)nc4)c3=O)ccc2n1` [Example 239, 5-(cyclopropylmethyl)-4-(6-cyclopropylpyridin-3-yl)-7-(hydroxymethyl)-2-(2-methyl-2H-indazol-5-yl)-2,5-dihydro-3H-pyrrolo[3,2-c]pyridazin-3-one], the pIC50 (with HCT116 MTAP−/−; in the assay on HCT116 MTAP+/+; in assay [1]; on MAT2A homodimer) was over 7.00 each time.
For `Cn1cc2cc(-n3nc4c(C#N)cn(CC5CC5)c4c(-c4ccc5[nH]cc(C#N)c5c4)c3=O)ccc2n1` [Example 130, 4-(3-cyano-1H-indol-5-yl)-5-(cyclopropylmethyl)-2-(2-methyl-2H-indazol-5-yl)-3-oxo-3,5-dihydro-2H-pyrrolo[3,2-c]pyridazine-7-carbonitrile], the pIC50 is 6.00 to 7.00 in the assay on HCT116 MTAP−/−, under 6.00 in the assay with HCT116 MTAP+/+, over 7.00 in assay [1] and over 7.00 on MAT2A homodimer.
For `[2H]C([2H])([2H])Oc1ccc(-n2nc3c(C#N)cn(CC4CC4)c3c(-c3ccc(C)nc3)c2=O)cc1` [Example 131, 5-(cyclopropylmethyl)-2-(4-(methoxy-d3)phenyl)-4-(6-methylpyridin-3-yl)-3-oxo-3,5-dihydro-2H-pyrrolo[3,2-c]pyridazine-7-carbonitrile], the pIC50 in the assay with HCT116 MTAP−/− is 6.00 to 7.00; in the assay with HCT116 MTAP+/+, under 6.00; in assay [1] it was over 7.00; at MAT2A homodimer, over 7.00.

(Values after patent US20220169654A1, “New Organic Compounds” (Servier Pharmaceuticals LLC, priority 2020, published 2022).)
